Laboratory results from patent publication US20230374103A1, “Wnt SIGNALING PATHWAY INHIBITOR” (OSAKA UNIVERSITY, priority 2020, published 2023).
Residues, ends and D or L forms follow the SMILES beside them.

Legend:
A549 cell xenograft = A549 cell xenograft model; format: in vivo, BALB/cAJcl-nu/nu; conditions: 600 μg/mouse every day, up to 49 days
Protocol: The influence of RANKL peptide on cancer in an A549 cell xenograft model was examined. Specifically, the following procedure was performed. 2×10^6 cells were administered subcutaneously to BALB/cAJcl-nu/nu […]. After one day, 600 μg/mouse of MHP1 was administered every day, and the tumor size was measured up to 49 days. Further, the tumor weight was measured.

A549 cells [1] = experiment: Migration/invasion assay of A549 cells (Boyden chamber / Matrigel Invasion chamber); format: cell-based, human
Protocol: The influence of RANKL peptide on the migration and invasion of A549 cells was examined. Specifically, the following procedure was performed. A chamber of an 8-μm polycarbonate membrane filter (Neuro Probe) was installed in the upper compartment of a Boyden chamber (48-well Chamber, Neuro Probe), A549 cells were seeded in serum-free DMEM containing MHP1-AcN, and DMEM containing 10% FBS was placed in the lower compartment, followed by incubation at 37° C. for 15 hours. In the invasion assay, the upper compartment was Matrigel Invasion chamber (Corning Life Science). Similar A549 cells were seeded in serum-free medium containing MHP1-AcN, and DEM containing 10% FBS was placed in the lower compartment. Cells adhering to the upper surface of each upper compartment were detached, the lower surface was stained with Diff-Quick (Sysmex), and the number of cells was counted under a microscope.

binding of LGR4 to RSPO1 = molecular target: T1, binding of LGR4 to RSPO1 (Homo sapiens, UniProt Q9BXB1); experiment: Competitive binding analysis of LGR4 and biotinylated RSPO1 (Flag-LGR4 transfected HEK293 cells, immunoprecipitation); conditions: 50 ng/mL biotinylated RSPO1, 2 hours, MHP1-7 (FIG. 4)
T1 construct: host or cells: HEK293
T1 sequence (Q9BXB1 25-951): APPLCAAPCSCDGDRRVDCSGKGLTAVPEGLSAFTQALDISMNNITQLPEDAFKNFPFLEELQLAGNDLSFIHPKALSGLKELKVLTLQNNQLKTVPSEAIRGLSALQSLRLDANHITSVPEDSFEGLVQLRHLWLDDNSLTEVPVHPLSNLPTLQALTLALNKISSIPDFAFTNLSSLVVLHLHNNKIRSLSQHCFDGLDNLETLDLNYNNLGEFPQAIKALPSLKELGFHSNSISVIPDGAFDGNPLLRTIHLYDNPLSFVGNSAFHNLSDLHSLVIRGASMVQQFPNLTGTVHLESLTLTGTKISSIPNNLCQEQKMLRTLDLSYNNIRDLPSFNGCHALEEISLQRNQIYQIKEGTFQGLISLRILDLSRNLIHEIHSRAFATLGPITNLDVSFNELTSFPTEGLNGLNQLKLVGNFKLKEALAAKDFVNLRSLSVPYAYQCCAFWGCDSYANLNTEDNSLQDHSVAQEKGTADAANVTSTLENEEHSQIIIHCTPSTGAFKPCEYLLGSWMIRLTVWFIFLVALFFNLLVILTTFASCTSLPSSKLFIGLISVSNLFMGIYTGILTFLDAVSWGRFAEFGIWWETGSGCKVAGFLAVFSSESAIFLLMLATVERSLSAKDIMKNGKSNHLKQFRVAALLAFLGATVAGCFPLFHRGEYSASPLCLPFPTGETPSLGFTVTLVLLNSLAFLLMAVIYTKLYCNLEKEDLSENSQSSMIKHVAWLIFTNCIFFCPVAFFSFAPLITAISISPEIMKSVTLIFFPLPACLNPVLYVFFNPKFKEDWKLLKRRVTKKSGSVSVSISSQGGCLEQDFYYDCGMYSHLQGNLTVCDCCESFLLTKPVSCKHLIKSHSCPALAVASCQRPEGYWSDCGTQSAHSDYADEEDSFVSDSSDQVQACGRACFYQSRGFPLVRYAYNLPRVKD
Protocol: HEK293 cells were incubated with 100 μg/mL of RANKL peptide or biotinylated RANKL peptide for 30 minutes, followed by immunoprecipitation. For competitive binding analysis, HEK293 cells were transfected with a Flag-tagged LGR4 expression plasmid (OriGene Technologies) for 48 hours, and incubated for 2 hours in the presence of 50 ng/mL L of recombinant human biotinylated RSPO1 (R&D System, #BT4645) and RANKL peptide. For immunoprecipitation, the cells were washed twice with cold PBS and dissolved in a lysis buffer (50 mM Tris-HCL, pH 7.4, 150 mM NaCl, 5 mM EDTA, 0.5% NP40, 10% glycerol and protease inhibitor cocktail (Roche)). The sample was centrifuged at 16,000 g for 10 minutes. The supernatant was collected, and the protein concentration was determined. Immunoprecipitation from samples containing equal amounts of protein was performed at 4° C. overnight using high-capacity streptavidin agarose (Thermo Fisher Scientific or Anti-FLAG M2 Affinity Gel (Sigma-Aldrich), followed by washing twice with a lysis buffer, and elution with 2× Laemmli Sample Buffer at 37° C. for 30 minutes before Western blotting. The blotted membrane was incubated with the primary antibody at 4° C. overnight, washed with TBS containing 0.1% Tween-20, then incubated with the HRP-conjugated secondary antibody at room temperature for 1 hour, and then incubated with Chemi-Lumi One L (Nacalai Tesque). […]

[2] = system: bleomycin-induced scleroderma model; experiment: Late administration test in bleomycin-induced scleroderma model; format: in vivo, C57BL6/J mice; conditions: 800 μg/mouse i.p. 5 days/week for 14 days after 14 days of bleomycin
Protocol: (§1) As test animals, C57BL6/J mice (female, 8 weeks were prepared. 200 μg/mouse of bleomycin was subcutaneously injected at a frequency of 5 days/week for 14 days. Subsequently, 800 μg/mouse of saline or RANKL peptide was intraperitoneally administered at a frequency of 5 days/week for 14 days. The nice were sacrificed after 14 days (28 days after the start of bleomycin administration), and the skin tissue of the bleomycin-administered portion was stained with Masson's trichrome to evaluate fibrosis. Further, the expression of collagen gene mRNA, which is a fibrosis index, in the skin was evaluated.

[3] = system: α-SMA and Colla1 expression (EMT); experiment: Expression of α-SMA and Colla1 induced by TGF-β in MRC-5 cells (real-time RT-PCR); format: cell-based
Protocol: The influence of RANKL peptide on the expression of α-SMA and Colla1 induced by TGF-β was examined. Specifically, the following procedure was performed. After pretreatment of MHP1 with MRC-5 cells for 24 hours, 2 ng/m/ of TGFβ was added, the cells were collected after 24 hours, and mRNA levels were determined by real-time RT-PCR.

[4] = system: bleomycin-induced scleroderma model; experiment: Early administration test in bleomycin-induced scleroderma model; format: in vivo, C57BL6/J mice; conditions: 800 μg/mouse i.p. 5 days/week for 14 days in parallel with bleomycin
Protocol: as §1, with “weeks old)” for “weeks”, “days, and in parallel with this,” for “days. Subsequently,”, “body weight was measured periodically during the dosing period. The mice” for “nice”, “sacrificed” for “sacrificed after”, “14” for “14 days (28”, “administration” for “bleomycin administration),”

[5] = system: Wnt signaling activation by RSPO; experiment: Wnt signaling inhibition test (β-catenin responsive element luciferase reporter); format: cell-based; conditions: HEK293 reporter cells; 50 ng/mL wnt3a + 20 ng/mL RSPO1/2/3; 24 hours; peptide tested MHP1-7 (FIG. 2)
Protocol: HEK293 cells expressing luciferase under the control of β-catenin responsive element were plated on a 96 -well plastic plate (1×10^4 cells/well) and incubated in the presence or absence of 50 ng/mL of recombinant mouse wnt3a (R&D System, #1324-WN) and recombinant human RSPO1 (R&D System, #4645-RS), recombinant human RSPO2 (PeproTech, #120-43), or recombinant human RSPO3 (PeproTech, #120-44). When these were added at the same time as RANKL peptide, 50 ng/mL of recombinant mouse wnt3a and 20 ng/mL of RSPO1/2/3 were used. After incubation for 24 hours, luciferase activity was analyzed using a luciferase assay system (Promega) and a microplate luminometer (Centro XS3 LB960; Berthold Technologies). The protein concentration of each sample was measured using Takara Bradford Protein Assay Kit (Takara Bio Inc.). The results of luciferase activity were normalized to the protein concentration of each sample.

[6] = system: bleomycin-induced pulmonary fibrosis model; experiment: Administration test in bleomycin-induced pulmonary fibrosis model; format: in vivo, C57BL6/J mice; conditions: 800 μg/mouse i.p. once, bleomycin intratracheally, 14 days
Protocol: As test animals, C57BL6/J mice (female, 8 weeks old) were prepared. Saline or RANKL peptide (800 μg/mouse) was administered intraperitoneally, and immediately thereafter, saline or bleomycin (0.05 μg/mouse) was directly administered intratracheally. The mice were sacrificed 14 days after administration, the lung weight and body weight were measured, and the lung weight/body weight ratio was determined. In addition, the lung tissue, was stained with Masson's trichrome, and Masson's trichrome score evaluation (0: normal, 1: fibrotic lesions predominantly at the margin of the lung, 2: marginal or global multifocal fibrotic lesions, 3: fibrotic lesions in approximately ⅓ of the area, 4: fibrotic lesions accounting for ⅔ or more of the area) was performed based on the stained images. Further, the expression of fibrosis marker gene mRNA in lung tissue was evaluated.

smad2/3 = smad2/3 activation induced by TGF-β in MRC-5 cells (WB); format: cell-based; conditions: 24 hours pretreatment, 5 ng/ml TGFβ, 10 minutes, MHP1-AcN (FIG. 17)
Protocol: The influence of RANEL peptide on smad2/3 activation induced by TGF-β was examined. Specifically, the following procedure was performed. After pretreatment of MRC-5 cells with MHP1 for 24 hours, 5 ng/ml of TGFβ was added to the medium, the medium was collected after 10 minutes, and WB was performed.

A549 cells [7] = experiment: Proliferation assay (MTT) of A549 cells; format: cell-based, human
Protocol: The influence RANKL peptide on the proliferation of A549 cells (human lung alveolar basal epithelial cells: high expression of both LGR4 and RSPO3 was confirmed) was examined. Specifically, the following procedure was performed. MHP1 was administered at 1 ng/ml to 100 μg/ml to A549 cells, and the cell viability was calculated by MTT assay after 40 hours.

[8] = MRC-5 cells, 24 hours pretreatment, TGFβ 24 hours, 10, 30, 100 μg/ml MHP1-AcN (FIG. 19)

CC[C@H](C)[C@H](NC(=O)[C@H](CO)NC(=O)[C@@H](NC(=O)[C@H](CCCCN)NC(=O)[C@@H](NC(=O)[C@@H](NC(=O)[C@H](Cc1ccc(O)cc1)NC(=O)[C@@H](NC(=O)[C@H](CCSC)NC(=O)[C@H](CC(C)C)NC(C)=O)C(C)C)C(C)C)C(C)C)[C@@H](C)O)C(=O)N[C@@H](CCCCN)C(=O)N[C@H](C(=O)N1CCC[C@H]1C(=O)N[C@@H](CO)C(=O)N[C@@H](CO)C(=O)N[C@@H](Cc1c[nH]cn1)C(=O)N[C@@H](CC(N)=O)C(=O)N[C@@H](CC(C)C)C(=O)N[C@@H](CCSC)C(=O)N[C@@H](CCCCN)C(=O)NCC(=O)NCC(=O)N[C@@H](CO)C(=O)N[C@H](C(=O)N[C@@H](CCCCN)C(=O)N[C@@H](CC(N)=O)C(=O)N[C@@H](Cc1c[nH]c2ccccc12)C(=O)N[C@@H](CO)C(=O)NCC(=O)N[C@@H](CC(N)=O)C(N)=O)[C@@H](C)O)[C@@H](C)CC [MHP1-7] (Ac-LMVYVVKTSIKIPSSHNLMKGGSTKNWSGN-NH2)
inhibits: binding of LGR4 to RSPO1 (binding of LGR4 to RSPO1)
not confirmed: influence on the degree of weight gain (A549 cell xenograft)
reduced: RSPO1 in the total cell lysate and the lysate immunoprecipitated with FLAG (Streptavidin-HRP) (binding of LGR4 to RSPO1)
suppressed: weight loss (body weight) ([4]; MHP1-7 (FIG. 7)) | lung weight gain ([6]; MHP1-7 (FIG. 11)) | weight loss (body weight) ([6]; MHP1-7 (FIG. 11))
inhibited: growth of cancer (tumor volume) (A549 cell xenograft; MHP1-AcN (FIG. 16)) | migration of lung cancer cells (number of cells) (A549 cells [1]; A549 cells, Boyden chamber, 15 hours, MHP1-AcN (FIG. 15)) | invasion of lung cancer cells (number of cells) (A549 cells [1]; A549 cells, Matrigel Invasion chamber, MHP1-AcN (FIG. 15)) | Wnt signaling pathway in A549 cells (A549 cells [1]; migration/invasion test) | skin thickening and fibrosis (Masson's trichrome, dermis thickness) ([2]; MHP1-7 (FIG. 8)) | expression of the collagen gene mRNA (Colla1, Colla2) in skin ([2]; MHP1-7 (FIGS. 9, 10)) | expression of Colla1 induced by TGF-β [3, 8] | expression of α-SMA (ACTA2) induced by TGF-β [3, 8] | EMT (epithelial-mesenchymal transition) ([3]; concluded from α-SMA and Colla1 expression in MRC-5 cells) | skin thickening and fibrosis (Masson's trichrome, dermis thickness) ([4]; MHP1-7 (FIG. 5)) | expression of the collagen gene mRNA in skin ([4]; MHP1-7 (FIG. 6)) | Wnt signaling activation by RSPO (luciferase activity normalized to protein concentration) [5] | expression of the fibrosis marker gene mRNA in lung tissue ([6]; MHP1-7 (FIG. 12)) | lung tissue fibrosis (Masson's trichrome score) ([6]; MHP1-7 (FIG. 13)) | smad2/3 activation induced by TGF-β (smad2/3) | proliferation of lung cancer cells (cell viability, MTT) (A549 cells [7]; A549 cells, 1 ng/ml to 100 μg/ml, 40 hours, MHP1-AcN (FIG. 14)) | Wnt signaling pathway in A549 cells (A549 cells [7]; along with the inhibition of the proliferation)
